Assay results taken from ChEMBL document CHEMBL1136655, “Synthesis of imidazopyridines and purines as potent inhibitors of leukotriene A4 hydrolase” (Bioorg Med Chem Lett, 2003).

Key:
Homo sapiens = species on record: Homo sapiens; experiment: Inhibition of LTB4 production from whole human blood.; assay type: functional
Mus musculus = experiment: Ex vivo inhibition of LTB4 production in mouse whole blood following 10 mg/kg p.o. administration.; assay type: functional; conditions: route oral
[1] = target: T1, Leukotriene A-4 hydrolase (Homo sapiens, UniProt P09960); experiment: In vitro inhibition of recombinant human leukotriene A4 hydrolase.
T1 sequence (P09960 whole entry): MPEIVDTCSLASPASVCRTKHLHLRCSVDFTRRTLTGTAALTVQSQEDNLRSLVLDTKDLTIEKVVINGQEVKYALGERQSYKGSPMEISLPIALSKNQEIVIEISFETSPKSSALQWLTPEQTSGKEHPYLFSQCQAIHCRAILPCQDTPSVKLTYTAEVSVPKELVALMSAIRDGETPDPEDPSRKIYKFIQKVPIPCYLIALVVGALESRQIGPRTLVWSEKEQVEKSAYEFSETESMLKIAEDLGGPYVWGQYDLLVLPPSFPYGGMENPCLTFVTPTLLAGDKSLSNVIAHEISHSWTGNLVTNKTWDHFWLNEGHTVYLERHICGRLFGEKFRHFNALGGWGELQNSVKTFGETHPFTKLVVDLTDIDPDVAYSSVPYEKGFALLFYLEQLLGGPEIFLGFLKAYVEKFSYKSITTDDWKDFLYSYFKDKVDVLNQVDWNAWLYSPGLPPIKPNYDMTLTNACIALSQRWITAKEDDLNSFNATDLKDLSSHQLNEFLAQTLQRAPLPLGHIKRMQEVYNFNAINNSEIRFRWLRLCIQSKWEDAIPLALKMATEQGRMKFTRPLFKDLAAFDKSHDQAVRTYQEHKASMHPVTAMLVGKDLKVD

Compound	IC50 (Homo sapiens) [nM]	inhibition in vivo at 10 mg/kg (Mus musculus) [%]	IC50 [1] [nM]
c1ccc(Cc2ccc(OCCn3cnc4ncccc43)cc2)cc1	330	18	–
N#Cc1ccc2c(ncn2CCOc2ccc(Cc3ccccc3)cc2)n1	150	21	0.8
N#Cc1nccc2c1ncn2CCOc1ccc(Cc2ccccc2)cc1	100	84	31

Continued by falling IC50 (Homo sapiens), values first:

IC50 (Homo sapiens) [nM]	Compound	inhibition in vivo at 10 mg/kg (Mus musculus) [%]	IC50 [1] [nM]
13200	c1ccc(Cc2ccc(OCCn3cnc4ccccc43)cc2)cc1	46	–
9150	c1ccc(Cc2ccc(OCCn3cnc4cccnc43)cc2)cc1	–	> 3000
940	Oc1ccc2ncn(CCOc3ccc(Cc4ccccc4)cc3)c2n1	72	500
690	c1ccc(Cc2ccc(OCCn3cccc4ncnc3-4)cc2)cc1	–	–
330	c1ccc(Cc2ccc(OCCn3cnc4cnccc43)cc2)cc1	64	–
